Results from patent US20260166029A1, “METHODS AND SYSTEMS FOR TREATING DISEASE USING AN ATR/CHK1 SIGNALING PATHWAY INHIBITOR” (Acrivon Therapeutics, Inc., priority 2022, published 2026).
Where two headings read alike, the source gives them in different places.

Assays:
OVCAR3 cells = test: Cell Titer Glo 2.0 viability after biomarker siRNA knockdown (Example 6); type: cell-based; details: Homo sapiens, OVCAR-3, 72 h, read-out: absolute EC50
Description: OVCAR3 cells cultured in RPMI medium with 20% FBS were transfected with siRNA (Silencer Select, cat #4390824, ThermoFisher) targeting TRIM28 (KAP1) CCNE1, CCNA2, or CHEK2, as compared with a negative control siRNA (cat #4390843, ThermoFisher) using RNAiMAX transfection reagent (ThermoFisher). Twenty-four hours after the transfection, cells were reseeded into 384-well plates and left to adhere for 24 hours before being treated with increasing doses of prexasertib. Relative cell viability against a DMSO control was assessed 72 hours after drug treatment using Cell Titer Glo 2.0 (Promega) and a SpectraMax microplate reader. Error bars represent standard deviations from quadruplicate samples.

A2780 = test: Cell Titer Glo 2.0 viability, prexasertib alone or with gemcitabine, three days (Example 11); type: cell-based; details: Homo sapiens, A2780, 72 h
Description: (§1) The present Example provides experimental evidence that treatment with gemcitabine sensitizes human cancer cell lines to treatment with prexasertib. A panel of human cancer cell lines were treated with various concentrations of prexasertib (0.17, 0.51, 1.5, 4.6, 13.7, 31.2, 123.5, 370.4, 1111, 3333, and 10000 nM) alone or in combination with various low dose concentrations of gemcitabine (0.53 and 2.7 nM). The panel of cell lines included ovarian, endometrial, bladder, breast, and prostate cancer cell lines. Two ovarian cancer cell lines (OVCAR3 and OV90) were used to generate acquired prexasertib resistant cells. For both cell lines, the parental cells (OVCAR3-P and OV90-P) and acquired prexasertib resistant cells (OVCAR3-R and OV90-R) were tested. Additionally, the panel included three cell lines that are naïve resistant to prexasertib (SW780, T47D, and PC3). After three days of treatment, cell viability relative to DMSO control was assessed using Cell Titer Glo 2.0 (Promega).
(§2) To determine whether gemcitabine and prexasertib acts synergistically, additively, or potentially antagonistically, the panel of human cancer cell lines were treated with various concentrations of prexasertib (0.17, 0.51, 1.5, 4.6, 13.7, 31.2, 123.5, 370.4, 1111, 3333, and 10000 nM) in combination with various concentrations of gemcitabine (1, 3, 13, 67, 333, 1667, 8333 nM). After three days treatment, cell viability relative to DMSO control was assessed using Cell Titer Glo 2.0 (Promega). Drug combination effect was evaluated using SynergyFinder 2.0, see Ianevski et al., Nucleic Acids Res., gkaa216 (2020), and is presented in Table 15 as a Bliss synergy score for each cell line. Bliss synergy scores greater than 10 are indicative of a synergistic effect between prexasertib and gemcitabine, while scores between 10 and −10 are indicative of an additive effect and scores less than −10 are indicative of an antagonistic effect. […] Taken together, the results of this Example support use of a combination of prexasertib and gemcitabine (e.g., low doses of gemcitabine) for treatment of predicted non-responders to prexasertib treatment.

AN3CA = test: as above; type: cell-based; details: Homo sapiens, AN3-CA, 72 h
Description: as §1, §2

KLE = test: as above; type: cell-based; details: Homo sapiens, 72 h, read-out: Prexasertib Relative IC50
Description: as §1, §2

OV90-P = test: as above; type: cell-based; details: Homo sapiens, 72 h
Description: as §1, §2

OV90-R = test: as above; type: cell-based; details: Homo sapiens, 72 h, gemcitabine 0.53 nM, read-out: Prexasertib Relative IC50
Description: as §1, §2

OVCAR3-P = test: as above; type: cell-based; details: Homo sapiens, 72 h
Description: as §1, §2

OVCAR3-R = test: as above; type: cell-based; details: Homo sapiens, 72 h
Description: as §1, §2

PC3 = test: as above; type: cell-based; details: Homo sapiens, PC-3, 72 h, gemcitabine 0.53 nM, read-out: Prexasertib Relative IC50
Description: as §1, §2

SW780 = test: as above; type: cell-based; details: Homo sapiens, 72 h, gemcitabine 0.53 nM
Description: as §1, §2

T47D = test: as above; type: cell-based; details: Homo sapiens, 72 h, gemcitabine 0.53 nM, read-out: Prexasertib Relative IC50
Description: as §1, §2

TCCSUP = test: as above; type: cell-based; details: Homo sapiens, TCC-SUP, 72 h
Description: as §1, §2

Anal, SCC = details: cited from earlier work
[1] = gemcitabine 0 nM, read-out: Prexasertib Relative IC50
[2] = gemcitabine 0.53 nM, read-out: Prexasertib Absolute IC50
[3] = gemcitabine 0.53 nM, read-out: Prexasertib Relative IC50
[4] = gemcitabine 0 nM, read-out: Prexasertib Absolute IC50
[5] = gemcitabine 2.7 nM, read-out: Prexasertib Absolute IC50
[6] = gemcitabine 2.7 nM, read-out: Prexasertib Relative IC50

EC50 (OVCAR3 cells; BM1 (CHEK2 (Chk2)) siRNA knockdown): 31 nM
EC50 (OVCAR3 cells; BM2 (TRIM28 (KAP1)) siRNA knockdown): > 10000 nM
EC50 (OVCAR3 cells; BM3 (CCNA2 (cyclin A2)) siRNA knockdown): 164 nM
EC50 (OVCAR3 cells; BM3 (CCNE1) siRNA knockdown): > 10000 nM
EC50 (OVCAR3 cells; negative control siRNA in the BM1 (CHEK2 (Chk2)) knockdown experiment): 12 nM
EC50 (OVCAR3 cells; negative control siRNA in the BM2 (TRIM28 (KAP1)) knockdown experiment): 100 nM
EC50 (OVCAR3 cells; negative control siRNA in the BM3 (CCNA2 (cyclin A2)) knockdown experiment): 24 nM
EC50 (OVCAR3 cells; negative control siRNA in the BM3 (CCNE1 (cyclin E1)) knockdown experiment): 25 nM
IC50 (A2780; [1]): 8.5 nM
IC50 (A2780; [2]): 0.5 nM
IC50 (A2780; [3]): 0.3 nM
IC50 (OVCAR3-P; [4]): 16 nM
IC50 (OVCAR3-P; [1]): 8 nM
IC50 (OVCAR3-P; [2]): 3 nM
IC50 (OVCAR3-P; [3]): 1.4 nM
IC50 (OVCAR3-P; [5]): 0.2 nM
IC50 (OVCAR3-P; [6]): 0.1 nM
IC50 (OVCAR3-R; [2]): 106 nM
IC50 (OVCAR3-R; [3]): 30 nM
IC50 (OVCAR3-R; [5]): 6.2 nM
IC50 (OVCAR3-R; [6]): 4 nM
IC50 (PC3): 0.15 nM
IC50 (SW780; read-out: Prexasertib Absolute IC50): 0.3 nM
IC50 (SW780; read-out: Prexasertib Relative IC50): 0.06 nM
IC50 (T47D): 0.22 nM
Structure (SMILES): COc1cccc(OCCCN)c1-c1cc(Nc2cnc(C#N)cn2)n[nH]1 [prexasertib, 5-(5-(2-(3-aminopropoxy)-6-methoxyphenyl)-1H-pyrazol-3-ylamino)pyrazine-2-carbonitrile]
IC50 (AN3CA; [4]): 2.2 nM
IC50 (AN3CA; [1]): 1.5 nM
IC50 (AN3CA; [2]): 0.3 nM
IC50 (AN3CA; [3]): 0.2 nM
IC50 (KLE; gemcitabine 0 nM): 0.36 nM
IC50 (KLE; gemcitabine 0.53 nM): 0.02 nM
IC50 (OV90-P; [4]): 49 nM
IC50 (OV90-P; [1]): 0.5 nM
IC50 (OV90-P; [2]): 0.93 nM
IC50 (OV90-P; [3]): 0.14 nM
IC50 (OV90-R): 0.03 nM
IC50 (TCCSUP; [4]): 2.8 nM
IC50 (TCCSUP; [1]): 1.4 nM
IC50 (TCCSUP; [2]): 0.08 nM
IC50 (TCCSUP; [3]): 0.04 nM
ORR in trials (Anal, SCC): 15%
